#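 Exposure lasted 48 hours, with cells grown in 96-well plates and compounds tested at five concentrations. At the TGI there is no net growth.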
# Assays:
# Assay in all cases: growth of human tumour cells (NCI), 48 h
# OVCAR-8 ovarian = test system: OVCAR-8 ovarian
# HL-60(TB) leukemia = test system: HL-60(TB) leukemia
# LOX IMVI melanoma = test system: LOX IMVI melanoma
# HOP-62 NSCLC = test system: HOP-62 NSCLC
# OVCAR-3 ovarian = test system: OVCAR-3 ovarian
# SNB-75 CNS = test system: SNB-75 CNS
# A498 renal = test system: A498 renal
# HCT-15 colon = test system: HCT-15 colon
# ACHN renal = test system: ACHN renal
# NCI-H23 lung = test system: NCI-H23 lung
# A549 NSCLC = test system: A549 NSCLC
# SR leukemia = test system: SR leukemia
# TK-10 renal = test system: TK-10 renal
# HT29 colon = test system: HT29 colon
# CCRF-CEM leukemia = test system: CCRF-CEM leukemia
# UACC-62 melanoma = test system: UACC-62 melanoma
# SK-MEL-5 melanoma = test system: SK-MEL-5 melanoma
# RXF 393 renal = test system: RXF 393 renal
# COLO 205 colon = test system: COLO 205 colon
# SF-539 CNS = test system: SF-539 CNS
# UACC-257 melanoma = test system: UACC-257 melanoma
# MOLT-4 leukemia = test system: MOLT-4 leukemia
# SF-295 CNS = test system: SF-295 CNS
# MDA-MB-435 = test system: MDA-MB-435
# OVCAR-5 ovarian = test system: OVCAR-5 ovarian
# CAKI-1 renal = test system: CAKI-1 renal
# SF-268 CNS = test system: SF-268 CNS
# HCC-2998 colon = test system: HCC-2998 colon
# MDA-MB-231 breast = test system: MDA-MB-231 breast
# NCI/ADR-RES ovarian = test system: NCI/ADR-RES ovarian
# DU-145 prostate = test system: DU-145 prostate
# UO-31 renal = test system: UO-31 renal
# HOP-92 NSCLC = test system: HOP-92 NSCLC
# MDA-N = test system: MDA-N
# OVCAR-4 ovarian = test system: OVCAR-4 ovarian
# SW-620 colon = test system: SW-620 colon
# EKVX NSCLC = test system: EKVX NSCLC
# HS 578T breast = test system: HS 578T breast
# M14 melanoma = test system: M14 melanoma
# U251 CNS = test system: U251 CNS
# SK-MEL-2 melanoma = test system: SK-MEL-2 melanoma
# KM12 colon = test system: KM12 colon
# IGROV1 ovarian = test system: IGROV1 ovarian
# T-47D breast = test system: T-47D breast
# NCI-H460 lung = test system: NCI-H460 lung
# SK-OV-3 ovarian = test system: SK-OV-3 ovarian
# NCI-H226 lung = test system: NCI-H226 lung
# PC-3 prostate = test system: PC-3 prostate
# K-562 leukemia = test system: K-562 leukemia
# RPMI-8226 leukemia = test system: RPMI-8226 leukemia
# MCF7 breast = test system: MCF7 breast
# SNB-19 CNS = test system: SNB-19 CNS
# SK-MEL-28 melanoma = test system: SK-MEL-28 melanoma
# MALME-3M melanoma = test system: MALME-3M melanoma
# 786-0 renal = test system: 786-0 renal
# HCT-116 colon = test system: HCT-116 colon
# SN12C renal = test system: SN12C renal
# NCI-H522 lung = test system: NCI-H522 lung
smiles,measurement,setting,value
Cc1ccc(C(=O)N/N=C(\N=Nc2cccc(C)c2)c2ccc(N(CCC#N)CCC#N)cc2C)cc1,TGI,OVCAR-8 ovarian,> 100 µM
same,TGI,HL-60(TB) leukemia,> 100 µM
same,TGI,LOX IMVI melanoma,> 100 µM
same,TGI,HOP-62 NSCLC,> 100 µM
same,TGI,OVCAR-3 ovarian,> 100 µM
same,TGI,SNB-75 CNS,> 100 µM
same,TGI,A498 renal,> 100 µM
same,TGI,HCT-15 colon,> 100 µM
same,TGI,ACHN renal,> 100 µM
same,TGI,NCI-H23 lung,> 100 µM
same,TGI,A549 NSCLC,> 100 µM
same,TGI,SR leukemia,> 100 µM
same,TGI,TK-10 renal,> 100 µM
same,TGI,HT29 colon,> 100 µM
same,TGI,CCRF-CEM leukemia,> 100 µM
same,TGI,UACC-62 melanoma,> 100 µM
same,TGI,SK-MEL-5 melanoma,> 100 µM
same,TGI,RXF 393 renal,> 100 µM
same,TGI,COLO 205 colon,> 100 µM
same,TGI,SF-539 CNS,> 100 µM
same,TGI,UACC-257 melanoma,> 100 µM
same,TGI,MOLT-4 leukemia,> 100 µM
same,TGI,SF-295 CNS,> 100 µM
same,TGI,MDA-MB-435,> 100 µM
same,TGI,OVCAR-5 ovarian,> 100 µM
same,TGI,CAKI-1 renal,> 100 µM
same,TGI,SF-268 CNS,> 100 µM
same,TGI,HCC-2998 colon,> 100 µM
same,TGI,MDA-MB-231 breast,> 100 µM
same,TGI,NCI/ADR-RES ovarian,> 100 µM
same,TGI,DU-145 prostate,> 100 µM
same,TGI,UO-31 renal,> 100 µM
same,TGI,HOP-92 NSCLC,> 100 µM
same,TGI,MDA-N,> 100 µM
same,TGI,OVCAR-4 ovarian,> 100 µM
same,TGI,SW-620 colon,> 100 µM
same,TGI,EKVX NSCLC,> 100 µM
same,TGI,HS 578T breast,> 100 µM
same,TGI,M14 melanoma,> 100 µM
same,TGI,U251 CNS,> 100 µM
same,TGI,SK-MEL-2 melanoma,> 100 µM
same,TGI,KM12 colon,> 100 µM
same,TGI,IGROV1 ovarian,> 100 µM
same,TGI,T-47D breast,> 100 µM
same,TGI,NCI-H460 lung,> 100 µM
same,TGI,SK-OV-3 ovarian,> 100 µM
same,TGI,NCI-H226 lung,> 100 µM
same,TGI,PC-3 prostate,> 100 µM
same,TGI,K-562 leukemia,> 100 µM
same,TGI,RPMI-8226 leukemia,> 100 µM
same,TGI,MCF7 breast,> 100 µM
same,TGI,SNB-19 CNS,> 100 µM
same,TGI,SK-MEL-28 melanoma,61.4 µM
CCCCNC(=O)OCCN=C1c2ccccc2C(Br)C(Br)c2ccccc21 (stereo not given),TGI,OVCAR-8 ovarian,58.9 µM
same,TGI,HL-60(TB) leukemia,37.6 µM
same,TGI,LOX IMVI melanoma,47.2 µM
same,TGI,MALME-3M melanoma,52.9 µM
same,TGI,HOP-62 NSCLC,> 100 µM
same,TGI,OVCAR-3 ovarian,46.1 µM
same,TGI,SNB-75 CNS,> 100 µM
same,TGI,A498 renal,> 100 µM
same,TGI,HCT-15 colon,38.2 µM
same,TGI,ACHN renal,62.4 µM
same,TGI,NCI-H23 lung,> 100 µM
same,TGI,A549 NSCLC,> 100 µM
same,TGI,SR leukemia,> 100 µM
same,TGI,TK-10 renal,52.2 µM
same,TGI,786-0 renal,28.3 µM
same,TGI,HT29 colon,58.3 µM
same,TGI,CCRF-CEM leukemia,> 100 µM
same,TGI,UACC-62 melanoma,> 100 µM
same,TGI,SK-MEL-5 melanoma,50.3 µM
same,TGI,RXF 393 renal,34.8 µM
same,TGI,COLO 205 colon,44.7 µM
same,TGI,HCT-116 colon,60.5 µM
same,TGI,SF-539 CNS,> 100 µM
same,TGI,UACC-257 melanoma,76.2 µM
same,TGI,MOLT-4 leukemia,84.1 µM
same,TGI,SF-295 CNS,> 100 µM
same,TGI,MDA-MB-435,57 µM
same,TGI,OVCAR-5 ovarian,> 100 µM
same,TGI,CAKI-1 renal,49.2 µM
same,TGI,SF-268 CNS,> 100 µM
same,TGI,HCC-2998 colon,> 100 µM
same,TGI,MDA-MB-231 breast,> 100 µM
same,TGI,NCI/ADR-RES ovarian,47.2 µM
same,TGI,DU-145 prostate,> 100 µM
same,TGI,HOP-92 NSCLC,37.1 µM
same,TGI,MDA-N,31.7 µM
same,TGI,OVCAR-4 ovarian,59.6 µM
same,TGI,SW-620 colon,> 100 µM
same,TGI,EKVX NSCLC,> 100 µM
same,TGI,HS 578T breast,> 100 µM
same,TGI,M14 melanoma,40.2 µM
same,TGI,SN12C renal,> 100 µM
same,TGI,U251 CNS,62.5 µM
same,TGI,SK-MEL-2 melanoma,> 100 µM
same,TGI,NCI-H522 lung,73 µM
same,TGI,KM12 colon,> 100 µM
same,TGI,IGROV1 ovarian,> 100 µM
same,TGI,T-47D breast,> 100 µM
same,TGI,NCI-H460 lung,> 100 µM
same,TGI,SK-OV-3 ovarian,> 100 µM
same,TGI,NCI-H226 lung,> 100 µM
same,TGI,PC-3 prostate,> 100 µM
same,TGI,K-562 leukemia,> 100 µM
same,TGI,RPMI-8226 leukemia,62.1 µM
same,TGI,MCF7 breast,> 100 µM
same,TGI,SNB-19 CNS,55.3 µM
same,TGI,SK-MEL-28 melanoma,> 100 µM
